Earlier results, collected in patent US7452858B2, “Treatment of gestational diabetes” (Amylin Pharmaceuticals, Inc., priority 1999, dated 2008).
Read-outs that look alike come from different tables or passages of the source. Where no end group is shown, it is not given here.

Experiments:
[1] = rats, intracerebroventricular injection
[2] = mice, peripheral injection
cloned GLP-1 receptor = settings: transfected cells

Substance | effect on food intake [1] | effect on food intake [2] | action at the cloned GLP-1 receptor (cAMP) (cloned GLP-1 receptor)
GLP-1 [7-36]NH2 (HAEGTFTSDVSSYLEGQAAKEFIAWLVKGR-NH2) | inhibits food intake | does not inhibit food intake | 
exendin[9-39]: C-terminally truncated exendin peptide, a carboxyamidated molecule, reported antagonist of GLP-1 |  |  | antagonist
